# Assay results published in patent US10676534B2, “Vaults engineered for hydrophobic drug delivery” (priority 2013, dated 2020).
# What was measured:
# J-Lat 10.6 cells = assay: In vitro latent HIV activation, J-Lat 10.6 cell line assay (GFP expression); format: cell-based; conditions: 50 nM, without vaults, positive control, 48 hrs, N=3, ±1 SD
# Description: (§1) FIGS. 10A, 10B, and 10C: FIG. 10A) In vitro latent HIV activation using bryostatin 1 sequestered in AH1 vault complexes compared to empty vault complexes on J-Lat 10.6 cells for 48 hrs. In these assays 50 nM of byrostatin 1 (without vaults) was used as a positive control and induced GFP expression in 30.6% (±0.6%) of cells. Error bars indicate ±1 SD (N=3). NS not significant, **p<0.0001 empty vault vs. Vault+Byrostatin 1 (2-sided t-test). FIG. 10B) In vitro stimulation of CD69 HIV provirus latency activation biomarker using bryostatin 1 sequestered in AH1 vault complexes compared to empty vault complexes on primary human PBMCs for 24 hrs. Positive control stimulations with 50 nM of byrostatin 1 compound (without vaults) induced CD69 expression in 69.4% (±31.3%) of cells. Error bars indicate ±1 SD (N=4 different cell donors). […]
# (§2) Bryostatin 1 is an effective HIV therapeutic as it activates latent HIV provirus that remains within cellular reservoirs. […] The bryostatin 1 sequestered within AH1 vault complex (bryostatin/AH1) was assessed in vitro and in vivo for the ability to activate latent HIV provirus. […] When tested for activity in this way, bryostatin/AH1 activated CD69 expression in primary human PBMC obtained from 4 different donors in a dose dependent manner with stimulation occurring at concentrations as low as 0.1 ng/μL AH1 vault complex as analyzed by flow cytometry (FIG. 10B).
# primary human PBMCs = assay: In vitro stimulation of CD69 HIV provirus latency activation biomarker, flow cytometry; format: cell-based; conditions: 50 nM, without vaults, positive control, 24 hrs, N=4 donors, ±1 SD
# Description: as §1, §2
# [1] = cited from earlier work
smiles,measurement,setting,value
CCC/C=C/C=C/C(=O)O[C@H]1/C(=C/C(=O)OC)C[C@H]2C[C@H]([C@@H](C)O)OC(=O)C[C@H](O)C[C@@H]3C[C@H](OC(C)=O)C(C)(C)[C@](O)(C[C@@H]4C/C(=C/C(=O)OC)C[C@H](/C=C/C(C)(C)[C@]1(O)O2)O4)O3 [Bryostatin 1],cells with induced GFP expression,J-Lat 10.6 cells,30.6%
same,cells with induced CD69 expression,primary human PBMCs,69.4%
COc1cccc2c1C(=O)c1c(O)c3c(c(O)c1C2=O)C[C@@](O)(C(=O)CO)C[C@@H]3O[C@H]1C[C@H](N)[C@H](O)[C@H](C)O1 [Doxorubicin],solubility in water,[1],over 50 mg/mL
"NC(=O)c1[nH]c2ccc(Cl)cc2c1S(=O)(=O)c1ccccc1 [CSIS, 5-chloro-3-phenylsulfonylindole-2-carboxamide]",solubility in water,[1],1.4 µg/mL
"CC1=C(/C=C/C(C)=C/C=C/C(C)=C/C(=O)O)C(C)(C)CCC1 [ATRA, All-trans Retinoic Acid]",aqueous solubility (in words),[1],aqueous insoluble
